Data set [1] is described as follows: Stability at high temperature and high humidity (residual content). It counts as physicochemical. The method, then:
The stability of compounds 1-1, 2-1 and the indole analogue 3-[(1-methyl-1H-indole-2-carbonyl) amino]propionic acid disclosed in CN2019107285315 was tested by experiments at high temperature and high humidity. The compounds were placed in 24-well plates, spread as a thin layer with a thickness of no more than 5 mm and placed in an oven at 60° C. for 10 days. Observation of appearance, TLC identification and determination of absorbance were carried out on the 5th day and the 10th day, respectively, in order to compare with the samples on the 0th day. An amount of compounds were taken into tightly closed brown colored penicillin bottles (the compounds were spread as a thin layer with a thickness of no more than 5 mm) and then placed into a tightly closed container with saturated NaCl solution and left at room temperature away from light for 10 days. Observation of appearance, TLC identification and determination of absorbance were carried out on the 5th day and the 10th day, respectively, in order to compare with the samples on the 0th day.

Data set [2] addresses T1, TRPC6 channel (Homo sapiens, UniProt Q9Y210).
T1 sequence (Q9Y210 1-931): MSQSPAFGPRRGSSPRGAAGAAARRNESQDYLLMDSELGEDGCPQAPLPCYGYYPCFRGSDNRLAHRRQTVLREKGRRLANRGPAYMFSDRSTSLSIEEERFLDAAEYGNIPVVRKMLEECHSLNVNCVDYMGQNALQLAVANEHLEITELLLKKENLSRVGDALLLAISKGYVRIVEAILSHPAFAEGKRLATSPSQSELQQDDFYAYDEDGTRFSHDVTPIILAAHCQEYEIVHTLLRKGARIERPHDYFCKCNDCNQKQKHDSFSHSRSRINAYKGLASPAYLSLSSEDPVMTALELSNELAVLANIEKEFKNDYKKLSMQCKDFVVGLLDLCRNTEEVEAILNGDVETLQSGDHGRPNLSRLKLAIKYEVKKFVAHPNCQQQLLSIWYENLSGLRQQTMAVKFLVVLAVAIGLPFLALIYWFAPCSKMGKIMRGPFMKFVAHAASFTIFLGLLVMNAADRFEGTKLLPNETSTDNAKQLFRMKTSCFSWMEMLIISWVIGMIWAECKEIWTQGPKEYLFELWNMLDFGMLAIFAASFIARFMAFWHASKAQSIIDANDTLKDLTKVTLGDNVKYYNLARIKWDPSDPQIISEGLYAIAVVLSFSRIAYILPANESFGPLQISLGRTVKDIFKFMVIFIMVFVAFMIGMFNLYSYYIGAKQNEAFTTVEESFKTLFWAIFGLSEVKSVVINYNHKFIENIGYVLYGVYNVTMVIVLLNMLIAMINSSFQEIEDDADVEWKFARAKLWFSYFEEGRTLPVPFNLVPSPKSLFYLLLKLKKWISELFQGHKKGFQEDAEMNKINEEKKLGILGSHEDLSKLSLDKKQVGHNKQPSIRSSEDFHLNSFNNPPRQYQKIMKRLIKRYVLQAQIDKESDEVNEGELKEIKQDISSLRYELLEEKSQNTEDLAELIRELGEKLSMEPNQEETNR
Kind of data set: In vitro binding to TRPC6 protein by microscale thermophoresis (MST). On the set-up: fused on or other part: NT-647-NHS fluorescent dye label (chemical labelling for MST). The method, then: The binding ability of the compounds of the present invention (as exemplified by the compounds obtained in Examples 1 to 3) to the TRPC6 protein was determined using the microscale thermophoresis (MST) method. The method was as follows:
Preparation and labelling of protein solution: TRPC6 protein dry powder (Alomone Labs, Israel) was prepared into a protein mother solution at a concentration of 10 μM using PBS-Buffer, and 35 μL of the protein stock solution was taken to the Buffer exchange A column, and centrifuged to obtain the Tris-removed protein. 34 μL Labelling Buffer was added to the Tris-removed protein according to the instructions of the Protein Fluorescent Labelling Kit (model L001). After mixing well, 3 μL of NT-647-NHS fluorescent dye was added and thus obtained mixture was incubated for 20 minutes. The protein-dye mixture was transferred to the purification B column, 300 μL of PBS-Buffer was added, and the target protein, i.e. fluorescent labelled protein TRPC6, was collected by centrifugation (with a final concentration of about 2 μM). 180 μL of target protein was mixed with 1620 μL of PBS-Buffer, and then 9 μl of Tween-20 were added thereto. Thus the resulting mixture was mixed and then centrifuged to obtain the target protein solution.
Preparation of compound solutions: the compounds were prepared separately with DMSO to storage solutions with a concentration of 10 μM. 10 μL of each storage solution was placed in a […] EP tube, 90 μL of PBS was added thereto and the resulting mixture was thoroughly mixed to prepare 100 μL of working solution at a concentration of 1 μM for later use. Ligand gradient dilutions were made for a total of 16 concentrations, and 10 μL of 10% DMSO-Buffer was added to each of the 15 gradients except gradient 1, followed by the addition of 10 μL of ligand working solution to gradients 1 and 2, respectively. The liquid in tube 2 was mixed and then 10 μL therein was taken into tube 3, and dilution was carried out in this manner until tube 16. […]

Setting [3] is: high humidity environment (saturated NaCl, room temperature, away from light), after 5 days.
Where [4] appears, read: high humidity environment (saturated NaCl, room temperature, away from light), after 10 days.
Setting [5] is: high temperature environment (oven at 60° C.), after 5 days.
[6] abbreviates: high temperature environment (oven at 60° C.), after 10 days.

The results in this text go back to patent US12692232B2, “Indole carboxamide compound, preparation therefor and use thereof” (NANJING RUISHUNING MEDICAL TECHNOLOGY CO., LTD., priority 2021, dated 2026).

As usually defined, the Kd is the free concentration of one partner at which half of the binding sites on the other are occupied at equilibrium, for simple one-to-one binding. The low end stands for higher affinity, the high end for lower affinity. Turning to `Cn1c(C(=O)NCCC(=O)O)cc2ccccc21` [3-[(1-methyl-1H-indole-2-carbonyl)amino]propionic acid, reference compound], the residual content in data set [1] (setting [3]) was determined as 29.5±0.1%; in data set [1] (setting [4]), 8.8±0.1%; in data set [1] (setting [5]), 23.1±0.1%; in data set [1] (setting [6]) it was 4.2±0.1%. This compound also registered a Kd in data set [2] of 29.78 ± 0.26 µM.
Consider `CC(=O)OCCCNC(=O)c1c(C=O)c2ccccc2n1C` [compound 1-1, propyl 3-[(3-formyl-1-methyl-1H-indole-2-carbonyl)amino]acetate], for which the residual content came out at 93.5±0.4% in data set [1] (setting [3]), 90.7±0.3% in data set [1] (setting [4]), 95.4±08% in data set [1] (setting [5]) and 94.2±0.6% in data set [1] (setting [6]). In data set [2], this compound showed a Kd of 12 ± 3.61 µM.
Take `Cn1c(C(=O)NCCCOC(=O)c2ccccc2)c(C=O)c2ccccc21` [compound 2-1]: the residual content is recorded as 94.2±0.3% in data set [1] (setting [3]), 90.1±0.8% in data set [1] (setting [4]), 93.6±0.6% in data set [1] (setting [5]) and 91.7±0.5% in data set [1] (setting [6]). The Kd in data set [2] is 19 ± 3.15 µM.
